From patent publication US9233946B2, “Sulfonamide compounds” (KANCERA AB, priority 2010, dated 2016)
Where two headings read alike, the source gives them in different places. Each block holds one compound with its values, some of them ahead of it.

Experiments:
PANC-1 cells = assay: Quantification of F-2,6-P2 in PANC-1 cells; type: cell-based; details: Homo sapiens, PANC-1; read-out: IC50 based on quantification of F-2,6-P2
Outline: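 Endogenous PFKFB3/PFKFB4 activity in PANC-1 cells, 18 h serum/glucose starvation in glucose-free DMEM/F12 with 0.25% FBS, then 1 h compound preincubation (50 and 10 μM, or dose response from 50 μM; 0.5% DMSO) at 37 °C. Glucose stimulation for 2 h, NaOH lysis, F-2,6-P2 quantified by Van Schaftingen coupled enzymatic assay against in-house standard.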

NUGC-3 cells = assay: Quantification of F-2,6-P2 in NUGC-3 cells; type: cell-based; details: Homo sapiens, read-out: IC50 based on quantification of F-2,6-P2
Text: (§1) The relative kinase (formation) and phosphatase (degradation) activities of the bi-functional enzymes PFKFB3 and PFKFB4 control the intracellular levels of the regulator F-2,6-P2, which acts as an allosteric activator of glycolysis. The levels of F-2,6-P2 have been determined in three different cancer cell lines (MCF-7, PANC-1 and NUGC-3) using the van Shaftingen assay. The assay protocols described under “Methods for measurement of enzymatic activity of PFKFB3 and PFKFB4, Method A” have been adapted for the measurement of the inhibitory effect of compounds on the kinase activity of the various isoforms of the bifunctional enzyme (endogenously expressed) in the different cell lines. The modifications are described in the protocol below. All reagents were purchased from commercial sources or prepared inhouse.
Cell Line C (NUGC-3, Human Gastric Cancer Cell Line)
Cells were seeded at a concentration of 350 000 cells/mL in 100 μL growth medium (35 000 cells/well) […]
The amount of F-2,6-P2 was quantified based on the coupled enzymatic reaction described by Van Schaftingen. If necessary the samples were further diluted in 20 mM NaOH before quantification. Plates stored at −20° C. were thawed and the F-2,6-P2 quantification was initiated by transferring 40 μL from each well of the NUNC plate to the corresponding position in a trans-parent 96-well SpectraPlate-MB (6005649, PerkinElmer). […]

[1] = system: NUGC3 gastric tumor cell line; assay: Inhibition of cancer cell proliferation (Sulphorhodamine B total cellular protein); type: cell-based, human; details: added at 0 h and again at 48 h, total of 120 h, FIG. 1
Method: To assess the antiproliferative response elicited by the compounds of the present invention in different tumour cell lines, total cellular protein in samples was quantified using the Sulphorhodamine B kit, TOX6, (Sigma-Aldrich).
Cells from selected tumour cell lines were cultured at 37° C., 5% CO2, normoxia, in DMEM/F12 medium +10% FBS. Cells were plated at a density of 6-12 000 cells/well, depending on cell-line specific size and growth characteristics, and allowed to attach overnight.
Culture media supernatants were then removed and replaced with either fresh medium or with compounds of the present invention diluted in cell culture medium to indicated concentrations, and to a maximal DMSO concentration of 0.1%. All treatments were in quadruplicate. After indicated incubation times, samples were washed with PBS and the total cellular protein in each sample was quantitated after precipitation with TCA according to the manufacturer's instructions. […] After air drying, bound dye was solubilized in 200 μL 10 mM Tris base, and the absorbance of dye was measured at a wavelength of 565 nm. To quantify growth, samples were collected also at t=0 h, and the resulting absorbance was set to 100%.
In brief, the Example 74 was added at the indicated concentrations at 0 h and again at 48 h. After a total of 120 h, the measured effect on cancer cell proliferation was quantified as described above.

MCF-7 cells = assay: Quantification of F-2,6-P2 in MCF-7 cells; type: cell-based; details: Homo sapiens
Text: as §1
Cell Line A (MCF-7, Human Breast Adenocarcinoma Cell Line)
• Cells: MCF-7(ATCC-HBT22). Lot. no: 58469417. • Growth Medium: • Eagle's Minimum Essential Medium (EMEM), Sigma-Aldrich #M5650, 500 ml • 10% FBS, Invitrogen, 10106-169 • 5 mL 200 mM L-glutamine, Invitrogen 25030024 • 5 mL 100 mM Sodium Pyruvate, Invitrogen 11360039 • 0.5 mL 10 mg/ml Bovine Insulin, Sigma-Aldrich 10516 […]
The amount of F-2,6-P2 was quantified based on the coupled enzymatic reaction described by Van Schaftingen. If necessary the samples were further diluted in 20 mM NaOH before quantification. […]

IC50 (PANC-1 cells): 3.7 µM | IC50 (NUGC-3 cells): 4 µM
Structure (SMILES): COC(=O)c1cccc(NS(=O)(=O)c2sc3ccc(Cl)cc3c2C)c1 [Example 74, Methyl 3-{[(5-chloro-3-methyl-1-benzothien-2-yl)sulfonyl]amino}benzoate]
effect on cell proliferation [1]: growth-inhibitory effect

Structure (SMILES): COC(=O)c1cc(NS(=O)(=O)c2sc3ccc(Cl)cc3c2C)ccc1O [Example 140, Methyl 5-{[(5-chloro-3-methyl-1-benzothiophen-2-yl)sulfonyl]amino}-2-hydroxybenzoate]
IC50 (MCF-7 cells; MCF7, cells seeded in the starvation medium containing 25 mM glucose, 25 000 cells/well, read-out: IC50 based on quantification of F-2,6-P2): 1.2 µM

IC50 (MCF-7 cells; MCF7, read-out: IC50 based on quantification of F-2,6-P2): 3 µM
Structure (SMILES): Cc1c(S(=O)(=O)Nc2cccc(-c3cnco3)c2)sc2ccc(Cl)cc12 [Example 141, 5-Chloro-3-methyl-N-[3-(1,3-oxazol-5-yl)phenyl]-1-benzothiophene-2-sulfonamide]
